Data: the NIST ThermoML archive (doi:10.1016/j.jct.2007.03.012)
± gives the expanded uncertainty stated by the source.

Conditions: Liquid, Bellows volumetry

CCC [propane]
mass density [kg/m3]
Conditions	280 K	300 K	320 K	340 K	360 K	380 K	400 K	420 K	440 K
1000 kPa	520.5 ± 0.47	489.81 ± 0.44	–	–	–	–	–	–	–
2000 kPa	522.64 ± 0.47	492.87 ± 0.44	457.48 ± 0.41	–	–	–	–	–	–
3000 kPa	524.74 ± 0.47	495.95 ± 0.45	462.23 ± 0.42	418.14 ± 0.39	–	–	–	–	–
5000 kPa	528.56 ± 0.48	501.37 ± 0.45	470.53 ± 0.43	433.26 ± 0.4	380.9 ± 0.36	–	–	–	–
10000 kPa	537.44 ± 0.48	512.99 ± 0.46	486.59 ± 0.44	457.48 ± 0.42	424.08 ± 0.39	384.1 ± 0.36	334.74 ± 0.33	–	–
20000 kPa	551.94 ± 0.5	530.94 ± 0.48	509.27 ± 0.46	486.91 ± 0.44	463.3 ± 0.42	438.22 ± 0.41	411.69 ± 0.39	384.77 ± 0.36	357.43 ± 0.34
30000 kPa	563.74 ± 0.51	544.91 ± 0.49	525.89 ± 0.47	506.87 ± 0.46	487.16 ± 0.44	466.67 ± 0.43	445.87 ± 0.41	425.47 ± 0.4	405.22 ± 0.38
40000 kPa	573.78 ± 0.52	556.1 ± 0.5	539.36 ± 0.49	522.28 ± 0.47	505.03 ± 0.46	487.15 ± 0.45	469.1 ± 0.44	451.66 ± 0.43	434.68 ± 0.42
50000 kPa	582.55 ± 0.53	566.32 ± 0.51	550.64 ± 0.5	534.97 ± 0.49	519.45 ± 0.47	503.08 ± 0.46	486.87 ± 0.45	471.39 ± 0.44	456.37 ± 0.43
60000 kPa	590.49 ± 0.53	575.16 ± 0.52	560.7 ± 0.51	545.94 ± 0.5	531.56 ± 0.48	516.47 ± 0.47	501.44 ± 0.46	487.29 ± 0.45	473.51 ± 0.44
70000 kPa	597.67 ± 0.54	583.22 ± 0.53	569.45 ± 0.52	555.7 ± 0.51	542.12 ± 0.49	527.94 ± 0.48	513.89 ± 0.47	500.74 ± 0.46	488.02 ± 0.46
80000 kPa	604.54 ± 0.55	590.34 ± 0.53	577.41 ± 0.53	564.27 ± 0.51	551.67 ± 0.5	538.06 ± 0.49	524.67 ± 0.48	512.43 ± 0.47	500.46 ± 0.47
90000 kPa	610.6 ± 0.55	597.08 ± 0.54	584.63 ± 0.53	572.21 ± 0.52	560.11 ± 0.51	547.06 ± 0.5	534.43 ± 0.49	522.77 ± 0.49	511.55 ± 0.48
100000 kPa	616.37 ± 0.56	603.47 ± 0.55	591.38 ± 0.54	579.45 ± 0.53	568.02 ± 0.52	555.29 ± 0.51	543.41 ± 0.5	532.04 ± 0.49	521.4 ± 0.49
120000 kPa	627.11 ± 0.59	614.69 ± 0.56	603.54 ± 0.57	592.54 ± 0.54	581.93 ± 0.53	570.05 ± 0.56	558.91 ± 0.51	548.04 ± 0.55	538.39 ± 0.55
140000 kPa	636.51 ± 0.59	624.98 ± 0.59	614.39 ± 0.58	603.89 ± 0.58	593.99 ± 0.57	582.94 ± 0.57	572.19 ± 0.55	562.28 ± 0.55	553.07 ± 0.56
160000 kPa	645.22 ± 0.6	634.04 ± 0.6	624.07 ± 0.59	614.28 ± 0.58	604.85 ± 0.58	594.15 ± 0.58	583.93 ± 0.56	574.66 ± 0.56	565.84 ± 0.56
180000 kPa	653.38 ± 0.61	642.55 ± 0.58	632.92 ± 0.59	623.6 ± 0.57	614.61 ± 0.56	604.41 ± 0.55	594.64 ± 0.57	585.51 ± 0.54	577.32 ± 0.56
200000 kPa	660.82 ± 0.6	650.24 ± 0.59	641.18 ± 0.58	632.17 ± 0.58	623.73 ± 0.57	613.68 ± 0.56	604.15 ± 0.55	595.61 ± 0.55	587.63 ± 0.54
